Assay results from patent publication US6486098B1, “Herbicidal phenoxypropionic acid N-alkyl-N-2-fluorophenyl amide compounds” (Dongbu Hannong Chemical Co. Ltd., priority 1999, dated 2002).

Assays:
TRZAW (Wheat) = assay: Leaf treatment test, wheat; assay type: in vivo, Triticum aestivum L.; settings: 14 days after treatment
Protocol: (§1) Seeds of rice, wheat, barley, corn, cotton, barnyard grass, common sorgum, large crabgrass and fall panicum were seeded at a pot with a surface area of 600 cm^2. […] 14 days after the treatment, the degree of damage to the plants was rated in % damage in comparison to the development of untreated control.

ECHCG (Barnyard grass) = assay: Leaf treatment test, barnyard grass; assay type: in vivo, Echinochloa crus-galli Beauv. var. caudata Kitagawa; settings: leaf treatment at three leaves, 14 days after treatment
Protocol: as §1

DIGSA (Large crabgrass) = assay: Leaf treatment test, large crabgrass; assay type: in vivo, Digitaria Sanguinalis (L.) SCOP; settings: 14 days after treatment
Protocol: as §1

GLXMA (Soy bean) = assay: Leaf treatment test, soy bean; assay type: in vivo, Glycine max (L.) MERR; settings: 14 days after treatment
SORBI (Common sorgum) = assay: Leaf treatment test, common sorgum; assay type: in vivo, Andropogon sorghum; settings: 14 days after treatment
Protocol: as §1

PANDI (Fall panicum) = assay: Leaf treatment test, fall panicum; assay type: in vivo, Panicum dichotomiflorum Michx; settings: 14 days after treatment
Protocol: as §1

ORYSA (Rice) = assay: Leaf treatment test, rice; assay type: in vivo, Oryza sativa L. cv. Dongjin; settings: 14 days after treatment
Protocol: as §1

ZEAMX (Corn) = assay: Leaf treatment test, corn; assay type: in vivo, Zea mays L.; settings: 14 days after treatment
Protocol: as §1

GOSHI (Cotton) = assay: Leaf treatment test, cotton; assay type: in vivo, Gossypium; settings: 14 days after treatment
Protocol: as §1

Compound	degree of damage to the plants (% damage) (TRZAW (Wheat); treated amount 0.025 kg/ha)	degree of damage to the plants (% damage) (TRZAW (Wheat); treated amount 0.1 kg/ha)	degree of damage to the plants (% damage) (TRZAW (Wheat); treated amount 0.4 kg/ha)	degree of damage to the plants (% damage) (ECHCG (Barnyard grass); treated amount 0.025 kg/ha)	degree of damage to the plants (% damage) (ECHCG (Barnyard grass); treated amount 0.1 kg/ha)	degree of damage to the plants (% damage) (ECHCG (Barnyard grass); treated amount 0.4 kg/ha)	degree of damage to the plants (% damage) (DIGSA (Large crabgrass); treated amount 0.025 kg/ha)	degree of damage to the plants (% damage) (DIGSA (Large crabgrass); treated amount 0.1 kg/ha)	degree of damage to the plants (% damage) (DIGSA (Large crabgrass); treated amount 0.4 kg/ha)	degree of damage to the plants (% damage) (GLXMA (Soy bean); treated amount 0.025 kg/ha)	degree of damage to the plants (% damage) (GLXMA (Soy bean); treated amount 0.1 kg/ha)	degree of damage to the plants (% damage) (GLXMA (Soy bean); treated amount 0.4 kg/ha)	degree of damage to the plants (% damage) (SORBI (Common sorgum); treated amount 0.025 kg/ha)	degree of damage to the plants (% damage) (SORBI (Common sorgum); treated amount 0.1 kg/ha)	degree of damage to the plants (% damage) (SORBI (Common sorgum); treated amount 0.4 kg/ha)	degree of damage to the plants (% damage) (PANDI (Fall panicum); treated amount 0.025 kg/ha)	degree of damage to the plants (% damage) (PANDI (Fall panicum); treated amount 0.1 kg/ha)	degree of damage to the plants (% damage) (PANDI (Fall panicum); treated amount 0.4 kg/ha)	degree of damage to the plants (% damage) (ORYSA (Rice); treated amount 0.025 kg/ha)	degree of damage to the plants (% damage) (ORYSA (Rice); treated amount 0.1 kg/ha)	further results
CCN(C(=O)C(C)Oc1ccc(Oc2nc3ccc(Cl)cc3o2)cc1)c1ccccc1F (stereo not drawn) [Compound No. 2]	0%	0%	0%	20%	80%	95%	30%	95%	100%	0%	0%	10%	40%	95%	100%	0%	100%	100%	0%	0%	degree of damage to the plants (% damage) (ORYSA (Rice); treated amount 0.4 kg/ha): 0%; degree of damage to the plants (% damage) (ZEAMX (Corn); treated amount 0.025 kg/ha): 5%; degree of damage to the plants (% damage) (ZEAMX (Corn); treated amount 0.1 kg/ha): 10%; degree of damage to the plants (% damage) (ZEAMX (Corn); treated amount 0.4 kg/ha): 70%; degree of damage to the plants (% damage) (GOSHI (Cotton); treated amount 0.025 kg/ha): 0%; degree of damage to the plants (% damage) (GOSHI (Cotton); treated amount 0.1 kg/ha): 0%; degree of damage to the plants (% damage) (GOSHI (Cotton); treated amount 0.4 kg/ha): 0%
CC(Oc1ccc(Oc2nc3ccc(Cl)cc3o2)cc1)C(=O)N(C)c1cc(F)c(F)cc1F (stereo not drawn) [Compound No. 3, 2-[4-(6-Chloro-2-benzoxazoyloxy)-phenoxy]propionic Acid-N-methyl-N-(2,4,5-trifluorophenyl)amide]	0%	0%	0%	0%	60%	95%	30%	90%	100%	0%	0%	10%	40%	100%	100%	0%	0%	0%	0%	0%	degree of damage to the plants (% damage) (ORYSA (Rice); treated amount 0.4 kg/ha): 10%; degree of damage to the plants (% damage) (ZEAMX (Corn); treated amount 0.025 kg/ha): 0%; degree of damage to the plants (% damage) (ZEAMX (Corn); treated amount 0.1 kg/ha): 0%; degree of damage to the plants (% damage) (ZEAMX (Corn); treated amount 0.4 kg/ha): 0%; degree of damage to the plants (% damage) (GOSHI (Cotton); treated amount 0.025 kg/ha): 0%; degree of damage to the plants (% damage) (GOSHI (Cotton); treated amount 0.1 kg/ha): 0%; degree of damage to the plants (% damage) (GOSHI (Cotton); treated amount 0.4 kg/ha): 0%
CC(Oc1ccc(Oc2nc3ccc(Cl)cc3o2)cc1)C(=O)N(C)c1c(F)cccc1F (stereo not drawn) [Compound No. 4, 2-[4-(6-Chloro-2-benzoxazoyloxy)-phenoxy]propionic Acid-N-methyl-N-(2,6-difluoro-phenyl)amide]	0%	0%	0%	80%	95%	100%	90%	100%	100%	0%	0%	20%	95%	100%	100%	40%	100%	100%	0%	20%	degree of damage to the plants (% damage) (ORYSA (Rice); treated amount 0.4 kg/ha): 30%; degree of damage to the plants (% damage) (ZEAMX (Corn); treated amount 0.025 kg/ha): 10%; degree of damage to the plants (% damage) (ZEAMX (Corn); treated amount 0.1 kg/ha): 40%; degree of damage to the plants (% damage) (ZEAMX (Corn); treated amount 0.4 kg/ha): 100%; degree of damage to the plants (% damage) (GOSHI (Cotton); treated amount 0.025 kg/ha): 0%; degree of damage to the plants (% damage) (GOSHI (Cotton); treated amount 0.1 kg/ha): 0%; degree of damage to the plants (% damage) (GOSHI (Cotton); treated amount 0.4 kg/ha): 0%
CC(Oc1ccc(Oc2nc3ccc(Cl)cc3o2)cc1)C(=O)N(C)c1ccc(F)cc1F (stereo not drawn) [Compound No. 5, 2-[4-(6-Chloro-2-benzoxazoyloxy)-phenoxy]propionic Acid-N-(2,4-difluorophenyl)-N-methyl Amide]	0%	0%	0%	0%	100%	100%	100%	100%	100%	0%	0%	0%	100%	100%	100%	40%	80%	100%	0%	0%	degree of damage to the plants (% damage) (ORYSA (Rice); treated amount 0.4 kg/ha): 0%; degree of damage to the plants (% damage) (ZEAMX (Corn); treated amount 0.025 kg/ha): 0%; degree of damage to the plants (% damage) (ZEAMX (Corn); treated amount 0.1 kg/ha): 30%; degree of damage to the plants (% damage) (ZEAMX (Corn); treated amount 0.4 kg/ha): 100%; degree of damage to the plants (% damage) (GOSHI (Cotton); treated amount 0.025 kg/ha): 0%; degree of damage to the plants (% damage) (GOSHI (Cotton); treated amount 0.1 kg/ha): 0%; degree of damage to the plants (% damage) (GOSHI (Cotton); treated amount 0.4 kg/ha): 0%
CC(Oc1ccc(Oc2nc3ccc(Cl)cc3o2)cc1)C(=O)N(C)c1c(F)ccc(F)c1F (stereo not drawn) [Compound No. 6, 2-[4-(6-Chloro-2-benzoxazoyloxy)-phenoxy]propionic Acid-N-methyl-N-(2,3,6-trifluorophenyl)amide]	0%	0%	0%	95%	100%	100%	40%	100%	100%	0%	0%	0%	100%	100%	100%	40%	100%	100%	0%	0%	degree of damage to the plants (% damage) (ORYSA (Rice); treated amount 0.4 kg/ha): 20%; degree of damage to the plants (% damage) (ZEAMX (Corn); treated amount 0.025 kg/ha): 30%; degree of damage to the plants (% damage) (ZEAMX (Corn); treated amount 0.1 kg/ha): 100%; degree of damage to the plants (% damage) (ZEAMX (Corn); treated amount 0.4 kg/ha): 100%; degree of damage to the plants (% damage) (GOSHI (Cotton); treated amount 0.025 kg/ha): 0%; degree of damage to the plants (% damage) (GOSHI (Cotton); treated amount 0.1 kg/ha): 0%; degree of damage to the plants (% damage) (GOSHI (Cotton); treated amount 0.4 kg/ha): 0%
Cc1ccc(F)c(N(C)C(=O)C(C)Oc2ccc(Oc3nc4ccc(Cl)cc4o3)cc2)c1 (stereo not drawn) [Compound No. 7]	0%	0%	0%	20%	40%	40%	100%	100%	100%	0%	0%	10%	10%	95%	100%	100%	100%	100%	0%	0%	degree of damage to the plants (% damage) (ORYSA (Rice); treated amount 0.4 kg/ha): 0%; degree of damage to the plants (% damage) (ZEAMX (Corn); treated amount 0.025 kg/ha): 0%; degree of damage to the plants (% damage) (ZEAMX (Corn); treated amount 0.1 kg/ha): 0%; degree of damage to the plants (% damage) (ZEAMX (Corn); treated amount 0.4 kg/ha): 0%; degree of damage to the plants (% damage) (GOSHI (Cotton); treated amount 0.025 kg/ha): 0%; degree of damage to the plants (% damage) (GOSHI (Cotton); treated amount 0.1 kg/ha): 0%; degree of damage to the plants (% damage) (GOSHI (Cotton); treated amount 0.4 kg/ha): 0%
